The record followed here is patent publication US20070275981A1, “(Hetero)Cyclycarboxamides for Controlling Pathogenic Fungi” (priority 2004, published 2007).

Experiment [1] has as its system Plasmopara viticola. Nature of the experiment: Activity against Peronospora of grapevines caused by Plasmopara viticola, 7 day protective application (Use Example 5). The class given is in vivo, Plasmopara viticola on potted grapevines. The settings on record: 250 ppm active compound, untreated plants 50% infected. The protocol: (§1) For the use examples 4 to 7, the active compounds were prepared as a stock solution comprising 25 mg of active compound which was made up with a mixture of acetone and/or DMSO and the emulsifier Uniperol® EL in a volume ratio of solvent/emulsifier of 99:1 to 10 ml. The mixture was then made up to 100 ml with water. This stock solution was diluted to the active compound concentration stated below using the solvent/emulsifier/water mixture described.
Leaves of potted grapevines were sprayed to runoff point with an aqueous suspension having the concentration of active compound stated below. To be able to assess the persistency of the substances, the plants were, after the spray coating had dried on, placed in a greenhouse for 7 days. The undersides of the leaves were then inoculated with an aqueous sporangia suspension of Plasmopara viticola. The grapevines were then placed initially for 48 hours in a water vapor-saturated chamber at 24° C. and then for 5 days in the greenhouse at temperatures between 20 and 30° C. After this time, the plants were again placed in a humid chamber for 16 hours, to accelerate sporangiophore eruption. The extent of the development of the infection on the undersides of the leaves was then determined visually.

The subject of experiment [2] is Plasmopara viticola. Briefly: Activity against Peronospora of grapevines caused by Plasmopara viticola (Use Example 1, inoculation the next day). Format: in vivo, Plasmopara viticola on potted grapevines. The settings on record: 250 ppm active compound, spray to runoff, inoculated next day; untreated plants 80% infected. How it is done:
For the use examples 1 to 3, the active compounds were prepared as a stock solution comprising 0.25% by weight of active compound in acetone or dimethyl sulfoxide (DMSO). 1% by weight of the emulsifier Uniperol® EL (wetting agent having emulsifying and dispersant action based on ethoxylated alkylphenols) was added to this solution, and the mixture was diluted with water to the desired concentration.
Leaves of potted grapevines were sprayed to runoff point with an aqueous suspension having the concentration of active compounds stated below. The next day, the undersides of the leaves were inoculated with an aqueous sporangia suspension of Plasmopara viticola. The grapevines were then initially placed in a water vapor-saturated chamber at 24° C. for 48 hours and then in a greenhouse at temperatures between 20 and 30° C. for 5 days. After this time, the plants were again placed in a humid chamber for 16 hours to promote sporangiophore eruption. The extent of the development of the infection on the undersides of the leaves was then determined visually.

In another experiment the test system is Botrytis cinerea. Briefly: Activity against gray mold on bell pepper leaves caused by Botrytis cinerea, protective application (Use Example 6). Format: in vivo. The settings on record: 63 ppm active compound, 5 days, untreated plants 90% affected. How it is done:
The mixture was then made up to 100 ml with water.
The next day, the treated plants were inoculated with an aqueous spore suspension of Botrytis cinerea in a 2% strength aqueous biomold solution having a density of 1.7×10^6 spores/ml. The plants were then placed in a dark acclimatized chamber at temperatures between 22 and 24° C. and high atmospheric humidity. After 5 days, the extent of the fungal infection could be determined visually by the infection of the leaf area.

The test system of experiment [3] is Erysiphe [syn. Blumeria] graminis forma specialis. tritici. Nature of the experiment: Activity against mildew of wheat caused by Erysiphe [syn. Blumeria] graminis forma specialis. tritici (Use Example 7). As to conditions: 250 ppm active compound, protective 24 h, 7 days; untreated plants 70% infected. Format: in vivo. The protocol: as §1
Leaves of potted wheat seedlings of the cultivar “Kanzler” were sprayed to runoff point with an aqueous suspension having the concentration of active compound stated below. 24 h after the spray coating had dried on, the leaves were dusted with spores of mildew of wheat (Erysiphe [syn. Blumeria] graminis forma specialis. tritici). The plants were then placed in a greenhouse at temperatures between 20 and 24° C. and 60 to 90% relative atmospheric humidity. After 7 days, the extent of the fungal infection was determined visually by the infection of the leaf area.

Each structure is given as a SMILES string.

On to `Cc1nn(C)cc1C(=O)Nc1cc(C(F)(F)F)nn1-c1ccccc1` [example 10], for which the infection result in the experiment on Plasmopara viticola [1] was “at most 20%”.
Consider `Cc1ccsc1C(=O)Nc1cc(C(F)(F)F)nn1-c1ccc(Br)cc1` [example 18], for which the infection result with Plasmopara viticola [2] is “at most 20%”.
`Cn1cc(C(=O)Nc2ccnn2-c2ccc(-c3ccccc3)cc2)c(C(F)(F)F)n1` [example 43]: in the experiment on Botrytis cinerea, the “infection (leaf area)” value was “at most 10%”.
Regarding `Cc1ccc(-n2nccc2NC(=O)c2cccnc2Cl)cc1` [example 31], in experiment [3], the “infection (leaf area)” value is on record as “at most 15%”.
